The values below come from ChEMBL document CHEMBL1153661, “Antiviral optically pure dioxolane purine nucleosides analogues” (Bioorg Med Chem Lett, 1993).

Structures are written as SMILES. A value given as a limit tells only on which side of the number the result lay.

In experiment [1] the test system is MT4. Description: Compound was tested for cytotoxicity against MT-4 cells (MT-4, RF strain of HIV-1); Compound was found non cytotoxic. It is filed as functional, cell-based. Conditions: Homo sapiens; call rule not given here.
In experiment [2] the test system is MT4. Description: Compound was tested for inhibitory activity against HIV in whole cell assay (MT-4, RF strain of HIV-1 at a concentration up to […]); IA: Found inactive. It is filed as functional, cell-based, Homo sapiens.
Experiment [3] is described as follows: Compound was tested for cytotoxicity against human peripheral blood mononuclear (PBM, LAV strain of HIV-l) cells. It is filed as functional. Conditions: read-out: CD50 (the source's name).
Experiment [4] deals with MT4. The experiment in a line: Compound was tested for cytotoxicity against MT-4 cells (MT-4, RF strain of HIV-1). It is filed as functional. Conditions: Homo sapiens, read-out: CD50 (the source's name).
Experiment [5] has as its system MT4. Description: Compound was tested for inhibitory activity against HIV in whole cell assay (MT-4, RF strain of HIV-1 at a concentration up to […]). It is filed as functional, cell-based. The conditions noted are these: Homo sapiens.
Experiment [6] in a line: Compound was tested for inhibitory activity against HIV in human peripheral blood mononuclear (PBM, LAV strain of HIV-l) cells. It is filed as functional, cell-based.

A word on the IC50: it is the concentration needed to halve the response being measured. The low end stands for higher potency, the high end for lower potency. As to `Nc1nc(O)c2ncn([C@@H]3CO[C@H](CO)O3)c2n1`, in the experiment on MT4 [1], the CD50 result was “Non-toxic”. In the experiment on MT4 [2], the half-maximal inhibitory concentration (IC50) entry is recorded as “Not Active”.

Regarding `Nc1nc2c(ncn2[C@H]2CO[C@@H](CO)O2)c(=O)[nH]1`, the values for the CC50 (in experiment [3]; with MT4 [4]) were greater than 100 µM and greater than 425 µM, respectively. Moreover, the IC50 in the experiment on MT4 [5] came out at 10.7 µM; in experiment [6], 0.03 µM.
